The values that follow come from publication PMC8622385, “Metabolites of Prickly Rose: Chemodiversity and Digestive-Enzyme-Inhibiting Potential of Rosa acicularis and the Main Ellagitannin Rugosin D” (Plants, 2021).

In this test the test system is proteases (pepsin, trypsin, chymotrypsin). The experiment in a line: Simulated gastrointestinal digestion of artificial substrate mixture, protease activity (7-amino-4-methylcoumarin marker, HPLC-DAD). Format: biochemical, porcine, bovine. Conditions: doses of 1–1000 μg/mL. From the text: To study the inhibitory potential of R. acicularis extracts on the digestive enzymes, we used the standardized static, simulated gastrointestinal digestion method of Minekus et al., based on physiologically relevant conditions of digestion. In brief, the artificial substrate mixture, including ethylidene-p-nitrophenyl-α-D-maltoheptaoside (as a carbohydrate model), Nα-benzoyl-L-arginine-7-amino-4-methylcoumarin hydrochloride (as a protein model) and 4-methylumbelliferyl heptanoate (as a lipid model), was digested with extracts of R. acicularis leaves, flowers, roots and fruits ([…]) by gastric and intestinal enzymatic and electrolyte mixtures (or juices). […] In a final step, concentrations of specific markers, such as p-nitrophenol, 7-amino-4-methylcoumarin and 4-methylumbelliferone, released from an artificial nutrient mixture, were analyzed by an HPLC-DAD assay. […]
For simulation, the known standardized static gastrointestinal digestion method of Minekus et al. was used with no variation. […] The supernatant was analyzed using an HPLC-DAD assay (Section 3.7) to quantify the level of markers as p-nitrophenol, 7-amino-4-methylcoumarin and 4-methylumbelliferone formed from ethylidene-p-nitrophenyl-α-D-maltoheptaoside, Nα-benzoyl-L-arginine- 7-amino-4-methylcoumarin hydrochloride and 4-methylumbelliferyl heptanoate, respectively. […]

For `O=C(O[C@@H]1O[C@@H]2COC(=O)c3cc(Oc4c(C(=O)O[C@@H]5O[C@@H]6COC(=O)c7cc(O)c(O)c(O)c7-c7c(cc(O)c(O)c7O)C(=O)O[C@H]6[C@H](OC(=O)c6cc(O)c(O)c(O)c6)[C@H]5OC(=O)c5cc(O)c(O)c(O)c5)cc(O)c(O)c4O)c(O)c(O)c3-c3c(cc(O)c(O)c3O)C(=O)O[C@H]2[C@H](OC(=O)c2cc(O)c(O)c(O)c2)[C@H]1OC(=O)c1cc(O)c(O)c(O)c1)c1cc(O)c(O)c(O)c1` [Rugosin D], the “Inhibition of protease activity in simulated digestion (in words)” value was “not substantially inhibited”.
